We go through three compounds from patent publication US20260306500A1, “METHOD OF INHIBITING ADENOSINE TRIPHOSPHATE SECRETION, METHOD OF INHIBITING HEPATIC STELLATE CELL ACTIVATION, METHOD OF DEACTIVATING HEPATIC STELLATE CELL, METHOD OF TREATING HEPATIC FIBROSIS, METHOD OF TREATING NON-ALCOHOLIC STEATOHEPATITIS, AND METHOD OF TREATING PSORIASIS” (Kurume University, priority 2023, published 2026).

Series [1] deals with macrophages (THP-1 cells). Description: ATP secretion from macrophages differentiated from THP-1 cells upon LPS stimulation. Type of series: cell-based, human. As to conditions: 10 μM, 10 μg/ml LPS, N=10 (FIG. 9). On the procedure: Human acute monocytic leukemia cells (THP-1 cells (ACTT)) were cultured in accordance with Reference D. THP-1 cells were cultured in RPMI1640 medium supplemented with 10% fetal bovine serum (FBS), 100 units/ml penicillin, and 100 μg/ml streptomycin at 37° C. in 5% CO2 for 1 day. Further, THP-1 cells were cultured in RPMI1640 medium supplemented with 1 μg/ml Escherichia coli serotype 055:B5 (manufactured by Sigma-Aldrich) and 1000 units/ml mouse IFN-γ (manufactured by R&D Systems) at 37° C. in 5% CO2 for 1 day, to allow differentiation into macrophages.
The differentiated macrophages were cultured in RPMI1640 medium supplemented with 1 mg/ml Escherichia coli serotype 055:B5 (manufactured by Sigma-Aldrich) and 1000 units/ml mouse IFN-γ (manufactured by R&D Systems) at 2.5×10^4 cells/well in a 24-well plate at 37° C. in 5% CO2 for 4 days. The medium was replaced with HBSS (manufactured by Gibco) supplemented with imeglimin or clodronate), and then LPS (10 μg/ml) was added thereto, followed by further performing incubation for 10 minutes and then collection of 200 μl of the supernatant. The supernatant was immediately treated on a heat block at 95° C. for 10 minutes, and ATP in the supernatant was quantified using an ATP assay kit−Luminescence (manufactured by Dojindo) (N=10).

In series [2] the test system is mouse auricle. The series can be described thus: Topical solutions on imiquimod-induced psoriasis (Example 21). Type of series: in vivo. As to conditions: for degree of auricular thickening: N=2 (FIG. 44). On the procedure: On Days 1, 2, 3, 5, and 6, 62.5 mg of 5% imiquimod cream (Beselna Cream 5%) was applied to auricles of wild-type mice (IMQ) or VNUT knockout mice (VNUT KO+IMQ) to induce psoriatic symptoms. […] For a negative control, only 20% glycerin solution was applied. In IMQ+1% IMG and IMQ+0.1% IMG, 20% glycerin solution supplemented with 1% (w/v) imeglimin and 0.1% (w/v) imeglimin, respectively, was applied immediately after the imiquimod application. Further, in IMQ+1% Clo and IMQ+0.1% Clo, 20% glycerin solution supplemented with 1% (w/v) clodronate and 0.1% (w/v) clodronate, respectively, was applied immediately after the imiquimod application.

The subject of the next series is ATP secretion. As to conditions: known; cited from earlier work.
For series [3] the following is noted: PEP; cited from earlier work.
The next series concerns keratinocytes. Description: Imiquimod-induced ATP secretion in keratinocytes. Type of series: cell-based, human. As to conditions: 18 hours, N=8 (FIG. 32). The method, then:
In the same manner as in Example 1, keratinocytes were cultured at 2.5×10^4 cells/well in a 24-well plate at 37° C. in 5% CO2 for 4 days. The medium was replaced with HBSS (manufactured by Gibco) supplemented with 1 μM or 10 μM imeglimin, and incubation was performed at 37° C. in 5% CO2 for 18 hours. Thereafter, imiquimod was added thereto at 1 μg/ml or 0.5 μg/ml, and incubation was performed for 15 minutes, followed by collection of 200 μl of the supernatant. The supernatant was immediately treated on a heat block at 95° C. for 10 minutes, and ATP in the supernatant was quantified using a ATP Assay Kit—Luminescence (manufactured by Dojindo) (N=8).

Series [4] relates to mouse auricle. Description: Imiquimod-induced psoriasis model, oral imeglimin (Example 18). Type of series: in vivo. The method, then:
Experimental psoriatic symptoms were induced in a mouse auricle by imiquimod. Six-week-old male C57BL/6 mice (N=5) were acclimated for one week. On Days 1 to 7, 62.5 mg of 5% imiquimod cream (Beselna Cream 5%) (3.125 mg in terms of the active ingredient, manufactured by Mochida Pharmaceutical Co. Ltd.) was applied to the right auricle of the mice for 7 consecutive days (IMQ group). Once daily after the imiquimod application, the imeglimin administration group (IMQ+IMG group) received oral administration, at 40 mg/kg, of 500-mg Twymeeg (trademark) tablets (manufactured by Sumitomo Pharma Co. Ltd.) dissolved in physiological saline. The control group received an equal volume of physiological saline. On Day 8, the mice were euthanized by cervical dislocation, and auricle thickness was measured using a dial thickness gauge (manufactured by Adachi Sogyo Co., Ltd.).
Each excised mouse auricle was fixed in 4% paraformaldehyde at 4° C. overnight. After ethanol substitution, the auricle was embedded in paraffin, sectioned using a rotary microtome Leica RM2165 (thickness, […]), and subjected to HE staining or immunohistochemical staining. For the immunohistochemical staining, the sections were deparaffinized, washed in xylene, and rehydrated through graded alcohols. The sections were incubated in DAKO at 95° C. for 30 minutes. The sections were blocked at room temperature for 60 minutes and then incubated at room temperature for 2 hours to allow reaction with a TGM1 anti-rabbit polyclonal antibody (catalog number 12912-3-AP, manufactured by Proteintech). The sample was washed and then allowed to react with a secondary antibody (Alexa 544-conjugated secondary antibody (goat anti-rabbit IgG) (manufactured by Molecular Probes)) at room temperature for 60 minutes. After allowing reaction with DAPI at room temperature for 10 minutes, the sections were mounted with Fluoromount and imaged using a fluorescence microscope (BZ-X710, manufactured by Keyence).

Series [5] has as its system mouse auricle. Description: Imiquimod-induced psoriasis model, comparison with an anti-TNFα antibody (Example 19). Type of series: in vivo. On the procedure: The dorsal hair of mice was shaved and depilated (Day 0). To each of the left auricle and the depilated back of each mouse, 62.5 mg of 5% imiquimod cream (Beselna Cream 5%) was applied once daily a total of seven times (Days 1 to 7) in accordance with Example 18, to induce imiquimod-induced psoriasis (IMQ group). In the IMQ+IMG group, mice received oral administration of imeglimin (40 mg/kg) once daily (Day 1 to 7) after the imiquimod application. […] Thickness of the auricle was measured, and the degrees of erythema, desquamation, and infiltration in the affected area were rated on Days 1, 3, 5, 7, and 8 according to the PASI scoring of the DermNET Dermatology Resource (none: 0, mild: 1, moderate: 2, severe: 3, and very severe: 4). The resulting values were used to calculate the PASI score.
Further, for an auricle excised on Day 8, immunohistochemical staining was performed in the same manner as in Example 18, and auricular sections were imaged using a fluorescence microscope (BZ-X710; manufactured by Keyence Corporation).

[6] abbreviates: topical 0.1% (w/v) in 20% glycerin solution after imiquimod.
Where [7] appears, read: topical 1% (w/v) in 20% glycerin solution after imiquimod.
Setting [8] is: 40 mg/kg oral once daily, Day 8, N=5 (FIG. 33).

Structures are written as SMILES.

Turning to `O=P(O)(O)C(Cl)(Cl)P(=O)(O)O` [clodronate], the “LPS-induced ATP secretion from macrophages” value in series [1] was “strongly inhibited”. Moreover, the “auricular thickness compared with imiquimod-treated VNUT knockout mice” value in the series on mouse auricle [2] (topical 0.1% (w/v)) and in the series with mouse auricle [2] (topical 1% (w/v)) was “about the same” in each case. The “degree of auricular thickening” value in the series with mouse auricle [2] (setting [6]) and in the series on mouse auricle [2] (setting [7]) was “improved” throughout. Also, the “ATP secretion inhibitory action” value in the series with ATP secretion was “known to have an ATP secretion inhibitory action”.

`C=C(OP(=O)(O)O)C(=O)O` [PEP, phosphoenolpyruvic acid]: in series [3], the “energy of phosphate bond in vivo” value was -14.8 kcal/mol.

With `C[C@@H]1N=C(N)NC(N(C)C)=N1` [imeglimin], the “imiquimod-promoted ATP secretion” value in the series with keratinocytes (1 μM imeglimin) and with keratinocytes (10 NM imeglimin (so in the source)) was “strongly inhibited” in each case. Besides, the “LPS-induced ATP secretion from macrophages” value in series [1] is given as “strongly inhibited”. Moreover, the “inhibitory effect on psoriatic symptoms by TMG1 immunohistochemical images” value in the series with mouse auricle [4] (40 mg/kg oral once daily (FIG. 36)) is listed as “supported by the immunohistochemical images of TMG1”. Further, the epidermal desquamation result with mouse auricle [4] (setting [8]) is listed as “eliminated epidermal desquamation”. Moreover, the psoriatic symptoms entry with mouse auricle [4] (setting [8]) is recorded as “reduced the psoriatic symptoms”. Moreover, the imiquimod-induced auricle thickening entry in the series on mouse auricle [4] (40 mg/kg oral once daily, N=5 (FIG. 34)) is on record as “suppressed”. The “degree of auricular thickening” value was “no effect” in the series with mouse auricle [2] (setting [6]) and “improved” with mouse auricle [2] (setting [7]). Also, the “concentration dependence of effect on auricular thickening” value in the series with mouse auricle [2] (topical 0.1% and 1% (w/v)) is “concentration-dependent”. Further, the “auricular thickness compared with imiquimod-treated VNUT knockout mice” value with mouse auricle [2] (topical 1% (w/v)) is on record as “about the same”. Further, the “inhibitory effects on psoriatic symptoms by TMG1 immunohistochemical images” value with mouse auricle [5] (Day 8 (FIG. 42)) is on record as “supported by the immunohistochemical images of TMG1”. Moreover, the “erythema (excepted from the symptoms reduced)” value with mouse auricle [5] (imeglimin 40 mg/kg oral daily or infliximab 100 μg/mouse i.v. Days 1, 3, 5, N=5 (FIG. 38)) is “except erythema”. The “typical psoriatic symptoms induced by imiquimod, except erythema (thickness, desquamation, infiltration, PASI score)” value in the series with mouse auricle [5] (imeglimin 40 mg/kg oral daily or infliximab 100 μg/mouse i.v. Days 1, 3, 5, N=5 (FIGS. 37-41)) was “reduced”. The “effect of imeglimin compared with infliximab” value with mouse auricle [5] (imeglimin 40 mg/kg oral vs infliximab 100 μg/mouse i.v.) was “almost equivalent, or imeglimin was more effective”.
